Measurements as given in ChEMBL document CHEMBL1201862, “PubChem BioAssay data set” (2004).
Active and inactive are the calls of the source.

Tests used:
[1] = A Cell Based Secondary Assay To Explore Cytotoxicity of Compounds that Sensitize Mycobacterium Tuberculosis to Beta-Lactam Antibiotics.; type: functional
Aminopeptidase N = biological target: T1, Aminopeptidase N (Plasmodium falciparum FcB1/Columbia, UniProt O96935); assay: P. falciparum M1AAP inhibitors, biochemical, fluorogenic H-Leu-NHMec substrate, 1536-well (AID 1445); design: species or system Plasmodium falciparum 3D7, 3D7
T1 sequence (O96935 whole entry): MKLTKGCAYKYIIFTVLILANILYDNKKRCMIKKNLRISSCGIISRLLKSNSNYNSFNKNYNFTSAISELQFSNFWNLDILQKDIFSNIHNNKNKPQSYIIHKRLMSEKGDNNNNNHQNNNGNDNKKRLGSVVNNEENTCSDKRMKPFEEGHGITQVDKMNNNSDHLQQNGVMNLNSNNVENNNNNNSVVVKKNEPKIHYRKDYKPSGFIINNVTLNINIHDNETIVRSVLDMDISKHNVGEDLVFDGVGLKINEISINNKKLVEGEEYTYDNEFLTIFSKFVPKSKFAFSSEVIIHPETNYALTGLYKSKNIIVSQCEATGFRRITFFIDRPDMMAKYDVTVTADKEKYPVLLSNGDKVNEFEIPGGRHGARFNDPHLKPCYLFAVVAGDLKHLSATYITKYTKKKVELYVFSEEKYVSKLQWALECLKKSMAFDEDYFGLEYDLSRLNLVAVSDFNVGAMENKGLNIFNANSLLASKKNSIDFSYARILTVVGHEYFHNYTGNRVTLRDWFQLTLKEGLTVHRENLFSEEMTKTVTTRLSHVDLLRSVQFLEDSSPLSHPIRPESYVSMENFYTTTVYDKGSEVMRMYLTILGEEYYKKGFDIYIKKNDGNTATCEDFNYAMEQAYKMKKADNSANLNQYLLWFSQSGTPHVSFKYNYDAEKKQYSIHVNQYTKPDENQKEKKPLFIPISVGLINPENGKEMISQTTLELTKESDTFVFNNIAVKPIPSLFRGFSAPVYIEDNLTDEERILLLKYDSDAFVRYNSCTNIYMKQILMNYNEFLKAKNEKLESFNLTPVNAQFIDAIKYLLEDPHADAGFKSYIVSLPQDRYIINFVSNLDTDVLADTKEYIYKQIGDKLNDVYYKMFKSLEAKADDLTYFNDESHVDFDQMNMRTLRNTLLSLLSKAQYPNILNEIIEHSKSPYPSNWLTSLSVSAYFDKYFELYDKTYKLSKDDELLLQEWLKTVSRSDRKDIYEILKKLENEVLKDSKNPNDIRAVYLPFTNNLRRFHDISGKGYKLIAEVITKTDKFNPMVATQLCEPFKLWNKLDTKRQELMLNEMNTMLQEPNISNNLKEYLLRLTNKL

Procathepsin L = Procathepsin L (Homo sapiens, UniProt P07711); assay: cathepsin L inhibitors, dose response, counter-screen for M1/M17 aminopeptidase inhibitor project, biochemical, QFRET, 1536-well (AID 2214)
Aspartyl aminopeptidase = biological target: T2, Aspartyl aminopeptidase (Plasmodium falciparum 3D7, UniProt Q8I2J3); assay: Counterscreen for inhibitors of M1 and M17 aminopeptidases: QFRET-based biochemical high throughput dose response assay for inhibitors of the Plasmodium falciparum M18 Aspartyl Aminopeptidase (PFM18AAP). [Related PubChem assays: 1619 (Screening assay (M17LAP inhibitors).), 1445 (Screening assay (M1AAP inhibitors).)]
T2 sequence (Q8I2J3 whole entry): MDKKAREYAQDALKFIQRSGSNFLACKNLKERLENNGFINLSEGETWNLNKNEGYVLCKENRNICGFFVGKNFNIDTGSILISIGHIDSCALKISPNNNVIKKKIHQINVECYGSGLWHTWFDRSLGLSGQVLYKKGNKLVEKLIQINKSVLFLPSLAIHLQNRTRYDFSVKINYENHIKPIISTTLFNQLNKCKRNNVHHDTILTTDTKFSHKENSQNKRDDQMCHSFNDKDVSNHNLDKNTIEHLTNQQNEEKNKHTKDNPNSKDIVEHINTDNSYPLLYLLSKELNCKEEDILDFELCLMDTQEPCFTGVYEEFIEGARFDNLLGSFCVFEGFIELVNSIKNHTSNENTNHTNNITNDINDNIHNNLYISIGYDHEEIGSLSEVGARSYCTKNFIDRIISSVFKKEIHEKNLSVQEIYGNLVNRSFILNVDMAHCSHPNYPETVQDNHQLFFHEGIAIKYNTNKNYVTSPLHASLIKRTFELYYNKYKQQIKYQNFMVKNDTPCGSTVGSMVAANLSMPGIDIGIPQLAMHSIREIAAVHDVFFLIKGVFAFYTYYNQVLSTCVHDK

[2] = HEp-2 cell cytotoxicity, dose response, cytotoxicity control for RSV inhibitor project, HTS (AID 2410); type: functional; conditions: human respiratory syncytial virus
cells [3] = assay: cells
[4] = biological target: T3, High affinity choline transporter 1 (Homo sapiens, UniProt Q9GZV3); assay: CHT inhibitors, dose response, cell-based, 5-point CRC, membrane potential dye (AID 504840); type: functional
T3 sequence (Q9GZV3 whole entry): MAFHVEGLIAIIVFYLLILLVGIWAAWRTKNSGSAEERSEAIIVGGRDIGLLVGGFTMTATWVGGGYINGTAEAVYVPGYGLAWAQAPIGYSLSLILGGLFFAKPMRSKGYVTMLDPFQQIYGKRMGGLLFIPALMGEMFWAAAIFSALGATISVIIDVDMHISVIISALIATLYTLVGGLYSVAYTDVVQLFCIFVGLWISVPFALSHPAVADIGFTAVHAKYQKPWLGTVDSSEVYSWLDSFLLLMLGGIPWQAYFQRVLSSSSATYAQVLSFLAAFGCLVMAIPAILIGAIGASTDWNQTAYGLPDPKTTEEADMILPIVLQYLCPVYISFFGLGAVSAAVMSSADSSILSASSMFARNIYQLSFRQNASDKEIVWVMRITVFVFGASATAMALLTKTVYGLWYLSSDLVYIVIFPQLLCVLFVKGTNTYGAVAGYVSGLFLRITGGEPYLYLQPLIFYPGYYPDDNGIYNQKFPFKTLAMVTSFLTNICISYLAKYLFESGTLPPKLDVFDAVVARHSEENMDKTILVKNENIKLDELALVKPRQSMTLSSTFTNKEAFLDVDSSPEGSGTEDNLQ

Cytochrome P450 2D6 = Cytochrome P450 2D6 (Homo sapiens, UniProt P10635);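 further: CYP2D6 member of a cytochrome P450 panel assay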
Leucine aminopeptidase = biological target: T4, Leucine aminopeptidase (Plasmodium falciparum 3D7, UniProt Q8IL11); assay: P. falciparum M17LAP inhibitors, primary screen, biochemical, fluorogenic H-Leu-NHMec substrate, 1536-well (AID 1619); type: functional
T4 sequence (Q8IL11 whole entry): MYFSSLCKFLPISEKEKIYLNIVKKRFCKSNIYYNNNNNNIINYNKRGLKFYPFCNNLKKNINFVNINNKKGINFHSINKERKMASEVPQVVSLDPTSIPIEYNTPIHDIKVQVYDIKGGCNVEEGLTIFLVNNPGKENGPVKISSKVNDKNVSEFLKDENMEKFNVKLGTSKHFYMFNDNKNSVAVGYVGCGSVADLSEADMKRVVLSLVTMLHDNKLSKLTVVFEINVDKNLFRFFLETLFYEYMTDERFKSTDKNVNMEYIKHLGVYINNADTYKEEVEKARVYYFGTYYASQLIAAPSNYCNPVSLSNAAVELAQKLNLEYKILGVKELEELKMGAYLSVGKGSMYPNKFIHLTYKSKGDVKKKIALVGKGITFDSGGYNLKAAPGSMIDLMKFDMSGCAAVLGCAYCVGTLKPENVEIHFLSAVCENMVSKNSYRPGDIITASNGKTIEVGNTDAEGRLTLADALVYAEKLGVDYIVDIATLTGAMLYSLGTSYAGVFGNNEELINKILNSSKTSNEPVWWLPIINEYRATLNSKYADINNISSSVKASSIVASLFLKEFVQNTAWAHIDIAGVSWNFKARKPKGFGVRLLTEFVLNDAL

[5] = biological target: Peroxisome proliferator-activated receptor gamma/Nuclear receptor coactivator 2 (Homo sapiens, UniProt P37231); type: functional;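 further: agonist potency for raising coactivator recruitment to the receptor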
[6] = biological target: Peroxisome proliferator-activated receptor gamma/Nuclear receptor coactivator 1 (Homo sapiens, UniProt P37231); type: functional;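 further: agonist potency as compounds enhance coactivator SRC-1 recruitment to PPARgamma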
[7] = biological target: Peroxisome proliferator-activated receptor gamma/Nuclear receptor coactivator 3 (Homo sapiens, UniProt P37231); type: functional;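 further: agonist potency for raising coactivator recruitment to the receptor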
Genome polyprotein = Genome polyprotein (dengue virus type 2, UniProt P29990); assay: Dengue-2 NS5 methyltransferase inhibitors, primary screen, biochemical, confirmation dose response (AID 588689); type: functional
cells [8] = type: functional, cell-based
cells [9] = type: functional, cell-based; remark: listed apart in the source
[10] = biological target: T5, Trace amine-associated receptor 1 (Homo sapiens, UniProt Q96RJ0); assay: Counterscreen for agonists of the human trace amine associated receptor 1 (hTAAR1): Fluorescence-based cell-based high throughput dose response assay to identify hTAAR1 agonist that also desensitize TAAR1 receptor response.; type: functional
T5 sequence (Q96RJ0 whole entry): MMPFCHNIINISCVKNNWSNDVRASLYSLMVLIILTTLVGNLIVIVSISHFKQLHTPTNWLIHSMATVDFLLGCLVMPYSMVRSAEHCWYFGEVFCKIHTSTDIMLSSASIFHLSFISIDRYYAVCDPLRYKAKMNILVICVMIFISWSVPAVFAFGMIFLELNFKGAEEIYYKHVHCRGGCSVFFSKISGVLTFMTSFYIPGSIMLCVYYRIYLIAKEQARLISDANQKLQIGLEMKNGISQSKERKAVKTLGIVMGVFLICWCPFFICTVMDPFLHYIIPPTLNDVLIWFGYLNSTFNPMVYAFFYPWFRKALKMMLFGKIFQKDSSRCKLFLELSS

[11] = biological target: T5, Trace amine-associated receptor 1; assay: Fluorescence-based cell-based high throughput dose response assay to identify agonists of the human trace amine associated receptor 1 (TAAR1).; type: functional
[12] = biological target: T6, Serine/threonine-protein phosphatase (Homo sapiens, UniProt Q9BPW0); assay: Counterscreen for inhibitors of PP1: fluorescence-based biochemical high throughput dose response assay to identify inhibitors of Protein Phosphatase 5 (PP5). [Related pubchem assays: 2034 (Summary (PP5 inhibitors)), 1987 (PP5 inhibitors in singlate), 2235 (PP1 inhibitors in singlate)]
T6 sequence (Q9BPW0 whole entry): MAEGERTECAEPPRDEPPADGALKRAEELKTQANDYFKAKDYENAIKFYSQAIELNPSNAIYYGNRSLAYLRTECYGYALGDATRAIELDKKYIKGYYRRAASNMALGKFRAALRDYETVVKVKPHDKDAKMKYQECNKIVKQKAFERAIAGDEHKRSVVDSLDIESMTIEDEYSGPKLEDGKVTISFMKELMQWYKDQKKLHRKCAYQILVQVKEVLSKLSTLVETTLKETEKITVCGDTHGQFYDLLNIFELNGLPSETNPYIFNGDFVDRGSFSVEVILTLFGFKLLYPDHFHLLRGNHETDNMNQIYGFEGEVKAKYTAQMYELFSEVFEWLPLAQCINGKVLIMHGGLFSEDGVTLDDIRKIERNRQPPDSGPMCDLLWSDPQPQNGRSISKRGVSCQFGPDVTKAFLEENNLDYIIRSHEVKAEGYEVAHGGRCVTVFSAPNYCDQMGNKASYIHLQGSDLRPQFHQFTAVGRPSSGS

[13] = biological target: Serine/threonine-protein phosphatase PP1-alpha catalytic subunit (Homo sapiens, UniProt P62136); assay: PP1 phosphatase inhibitors, dose response, biochemical, fluorescence (AID 2403);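 further: phosphatase turnover of OMFP into fluorescent 3-O-methylfluorescein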
Serine/threonine-protein phosphatase PP1-alpha catalytic subunit, sequence (P62136 whole entry): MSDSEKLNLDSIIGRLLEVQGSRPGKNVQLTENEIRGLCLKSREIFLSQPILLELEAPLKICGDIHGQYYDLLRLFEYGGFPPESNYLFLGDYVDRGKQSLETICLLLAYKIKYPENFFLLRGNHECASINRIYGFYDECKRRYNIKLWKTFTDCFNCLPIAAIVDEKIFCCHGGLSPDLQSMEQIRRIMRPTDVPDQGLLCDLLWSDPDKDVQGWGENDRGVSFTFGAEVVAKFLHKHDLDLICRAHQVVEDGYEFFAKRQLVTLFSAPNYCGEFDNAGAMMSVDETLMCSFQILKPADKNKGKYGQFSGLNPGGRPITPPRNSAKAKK

Procathepsin L, sequence (P07711 whole entry): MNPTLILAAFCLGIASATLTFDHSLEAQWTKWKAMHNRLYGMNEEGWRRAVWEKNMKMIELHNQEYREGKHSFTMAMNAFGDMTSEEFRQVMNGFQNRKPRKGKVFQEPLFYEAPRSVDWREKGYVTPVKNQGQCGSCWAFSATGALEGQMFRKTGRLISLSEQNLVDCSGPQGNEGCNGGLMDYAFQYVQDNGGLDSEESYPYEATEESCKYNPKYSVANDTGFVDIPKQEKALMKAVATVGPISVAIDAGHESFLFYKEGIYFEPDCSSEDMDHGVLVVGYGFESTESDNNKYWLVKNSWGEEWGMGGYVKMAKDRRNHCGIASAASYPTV
Peroxisome proliferator-activated receptor gamma/Nuclear receptor coactivator 1, sequence (P37231 whole entry): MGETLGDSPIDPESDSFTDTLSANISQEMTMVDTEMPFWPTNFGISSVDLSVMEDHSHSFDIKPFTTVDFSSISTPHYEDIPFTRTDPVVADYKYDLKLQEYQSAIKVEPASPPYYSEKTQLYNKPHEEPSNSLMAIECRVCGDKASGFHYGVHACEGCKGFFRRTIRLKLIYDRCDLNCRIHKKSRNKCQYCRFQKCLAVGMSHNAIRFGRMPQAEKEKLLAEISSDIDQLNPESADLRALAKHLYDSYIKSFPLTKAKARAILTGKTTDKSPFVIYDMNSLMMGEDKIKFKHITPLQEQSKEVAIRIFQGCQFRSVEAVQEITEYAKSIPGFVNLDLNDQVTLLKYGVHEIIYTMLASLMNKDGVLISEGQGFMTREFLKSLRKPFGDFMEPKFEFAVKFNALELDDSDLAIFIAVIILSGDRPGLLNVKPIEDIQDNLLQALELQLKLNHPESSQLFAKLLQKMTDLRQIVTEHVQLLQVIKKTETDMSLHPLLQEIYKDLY
Peroxisome proliferator-activated receptor gamma/Nuclear receptor coactivator 1, sequence (Q15788 whole entry, further chain): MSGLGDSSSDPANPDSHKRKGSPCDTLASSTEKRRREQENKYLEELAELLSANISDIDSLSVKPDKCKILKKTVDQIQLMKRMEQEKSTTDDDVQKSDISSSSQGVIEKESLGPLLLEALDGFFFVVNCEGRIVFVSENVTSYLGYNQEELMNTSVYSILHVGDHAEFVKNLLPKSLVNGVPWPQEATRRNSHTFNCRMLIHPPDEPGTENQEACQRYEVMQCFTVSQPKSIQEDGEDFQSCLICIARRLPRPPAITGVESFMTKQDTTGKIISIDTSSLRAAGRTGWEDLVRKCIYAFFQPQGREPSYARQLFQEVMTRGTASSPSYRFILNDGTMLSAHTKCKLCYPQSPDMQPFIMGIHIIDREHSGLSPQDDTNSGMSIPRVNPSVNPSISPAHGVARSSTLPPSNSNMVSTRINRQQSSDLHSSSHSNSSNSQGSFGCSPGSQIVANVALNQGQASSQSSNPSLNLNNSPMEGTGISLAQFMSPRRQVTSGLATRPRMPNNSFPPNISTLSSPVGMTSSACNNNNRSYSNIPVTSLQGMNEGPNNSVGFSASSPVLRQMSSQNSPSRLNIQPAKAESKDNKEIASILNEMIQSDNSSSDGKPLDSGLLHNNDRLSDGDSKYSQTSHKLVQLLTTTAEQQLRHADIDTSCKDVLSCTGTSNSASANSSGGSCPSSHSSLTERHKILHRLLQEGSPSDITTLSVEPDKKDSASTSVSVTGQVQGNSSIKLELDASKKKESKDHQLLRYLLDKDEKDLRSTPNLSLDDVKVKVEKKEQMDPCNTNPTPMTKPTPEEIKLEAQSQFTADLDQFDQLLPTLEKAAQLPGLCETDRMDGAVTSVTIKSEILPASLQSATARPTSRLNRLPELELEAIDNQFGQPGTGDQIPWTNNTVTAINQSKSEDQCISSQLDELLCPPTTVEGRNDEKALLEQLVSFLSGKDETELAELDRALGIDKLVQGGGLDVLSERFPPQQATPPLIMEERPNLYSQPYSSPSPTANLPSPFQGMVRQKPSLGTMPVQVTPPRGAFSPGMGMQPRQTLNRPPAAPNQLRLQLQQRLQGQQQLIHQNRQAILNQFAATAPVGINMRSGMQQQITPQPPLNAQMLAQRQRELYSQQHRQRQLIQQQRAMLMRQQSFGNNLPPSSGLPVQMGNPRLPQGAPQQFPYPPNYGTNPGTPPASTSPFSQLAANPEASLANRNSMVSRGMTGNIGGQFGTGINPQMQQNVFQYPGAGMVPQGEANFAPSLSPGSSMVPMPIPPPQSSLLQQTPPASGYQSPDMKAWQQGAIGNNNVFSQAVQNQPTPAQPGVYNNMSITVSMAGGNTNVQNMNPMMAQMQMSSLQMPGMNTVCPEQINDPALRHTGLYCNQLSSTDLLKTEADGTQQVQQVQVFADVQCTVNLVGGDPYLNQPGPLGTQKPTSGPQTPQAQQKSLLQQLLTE
Peroxisome proliferator-activated receptor gamma/Nuclear receptor coactivator 3, sequence (P37231 whole entry): as the sequence (P37231 whole entry) above
Peroxisome proliferator-activated receptor gamma/Nuclear receptor coactivator 3, sequence (Q9Y6Q9 whole entry, further chain): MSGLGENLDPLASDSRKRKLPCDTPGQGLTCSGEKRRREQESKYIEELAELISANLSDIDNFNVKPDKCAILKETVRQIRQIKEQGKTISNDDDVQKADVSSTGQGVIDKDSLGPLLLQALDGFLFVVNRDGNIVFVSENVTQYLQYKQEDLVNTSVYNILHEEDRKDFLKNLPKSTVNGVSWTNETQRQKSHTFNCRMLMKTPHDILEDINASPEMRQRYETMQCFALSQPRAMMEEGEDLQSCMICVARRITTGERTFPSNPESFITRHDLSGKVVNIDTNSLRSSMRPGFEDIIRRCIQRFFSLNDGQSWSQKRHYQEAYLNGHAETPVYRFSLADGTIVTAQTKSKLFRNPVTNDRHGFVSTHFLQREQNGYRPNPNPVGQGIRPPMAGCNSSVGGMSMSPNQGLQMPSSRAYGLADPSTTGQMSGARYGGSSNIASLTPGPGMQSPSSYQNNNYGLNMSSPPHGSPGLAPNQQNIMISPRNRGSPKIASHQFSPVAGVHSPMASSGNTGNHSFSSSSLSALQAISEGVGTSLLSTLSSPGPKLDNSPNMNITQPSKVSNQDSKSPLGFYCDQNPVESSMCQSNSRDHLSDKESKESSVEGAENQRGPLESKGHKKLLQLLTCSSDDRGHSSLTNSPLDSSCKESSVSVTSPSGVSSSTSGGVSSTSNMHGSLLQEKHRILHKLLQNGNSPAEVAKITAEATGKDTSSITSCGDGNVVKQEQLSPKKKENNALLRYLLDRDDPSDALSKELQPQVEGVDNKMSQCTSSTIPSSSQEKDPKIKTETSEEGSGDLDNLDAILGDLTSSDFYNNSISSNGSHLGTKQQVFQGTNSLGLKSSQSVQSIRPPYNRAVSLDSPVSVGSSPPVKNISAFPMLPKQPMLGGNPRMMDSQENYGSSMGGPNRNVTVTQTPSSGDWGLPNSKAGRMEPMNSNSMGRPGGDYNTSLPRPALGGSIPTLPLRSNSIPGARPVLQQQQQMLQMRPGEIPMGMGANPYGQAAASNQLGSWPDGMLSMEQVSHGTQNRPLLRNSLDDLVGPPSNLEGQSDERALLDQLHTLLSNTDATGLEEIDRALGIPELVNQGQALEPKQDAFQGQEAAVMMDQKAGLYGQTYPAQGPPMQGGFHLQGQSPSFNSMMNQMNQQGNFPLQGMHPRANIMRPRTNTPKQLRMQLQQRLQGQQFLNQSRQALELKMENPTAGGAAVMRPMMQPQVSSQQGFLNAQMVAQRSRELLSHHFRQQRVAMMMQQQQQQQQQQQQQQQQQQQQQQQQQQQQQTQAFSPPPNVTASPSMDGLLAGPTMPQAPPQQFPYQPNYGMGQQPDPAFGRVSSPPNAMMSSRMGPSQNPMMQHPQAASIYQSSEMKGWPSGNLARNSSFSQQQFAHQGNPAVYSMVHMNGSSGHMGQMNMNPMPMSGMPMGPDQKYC
Cytochrome P450 2D6, sequence (P10635 whole entry): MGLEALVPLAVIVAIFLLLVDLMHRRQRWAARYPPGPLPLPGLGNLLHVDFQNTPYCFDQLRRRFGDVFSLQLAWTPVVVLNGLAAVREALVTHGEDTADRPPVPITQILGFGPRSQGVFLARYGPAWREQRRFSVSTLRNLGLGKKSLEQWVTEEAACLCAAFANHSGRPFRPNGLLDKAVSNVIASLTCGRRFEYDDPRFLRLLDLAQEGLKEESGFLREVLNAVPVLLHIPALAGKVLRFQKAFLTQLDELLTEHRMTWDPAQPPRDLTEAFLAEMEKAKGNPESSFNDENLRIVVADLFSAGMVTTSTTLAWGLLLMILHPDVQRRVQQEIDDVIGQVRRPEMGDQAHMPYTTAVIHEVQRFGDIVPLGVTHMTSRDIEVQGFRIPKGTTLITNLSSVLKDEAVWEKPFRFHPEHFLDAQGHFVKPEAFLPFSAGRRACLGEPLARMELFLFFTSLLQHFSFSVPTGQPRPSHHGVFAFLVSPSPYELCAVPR

## Cc1cc(F)ccc1NCC(=O)Nc1ccc(Br)cc1C
[1]
  CC50: > 40 µM (active)

## COc1ccccc1-c1nc2ccccc2c(=O)n1NC(=O)c1cccs1
Aminopeptidase N
  IC50: 15.8 µM (active)
Procathepsin L
  IC50: > 59.6 µM (not active)
Aspartyl aminopeptidase
  IC50: > 73.5 µM (not active)

## Cc1cc(C)c(-n2c(C)cc(/C=C3/NC(=O)NC3=O)c2C)c(C)c1
[2]
  CC50: 11.2 µM (active)
Cells [3]
  IC50: 2.83 µM (active)

## COCCN(C(=O)CSc1nnc(-c2ccc(C)c(C)c2)o1)c1c(N)n(CC(C)C)c(=O)[nH]c1=O
Cells [3]
  IC50: 13.3 µM (active)
[4]
  IC50: 14.8 µM (active)

## COc1ccc(CN(CCC#N)C(=S)NC(=O)c2ccccc2)cc1
[1]
  CC50: 39 µM (active)
Cytochrome P450 2D6
  AC50: 25.1 µM (inconclusive)

## CCc1ccc(NC(=O)C2CC=CCC2C(=O)O)cc1 (stereo unspecified)
Leucine aminopeptidase
  IC50: 3.48 µM (active)
Procathepsin L
  IC50: > 59.6 µM (not active)
Aspartyl aminopeptidase
  IC50: > 73.5 µM (not active)

## Cc1sc2nc3c(SC(C)C(=O)O)cc(C(=O)c4ccccc4O)cn3c(=O)c2c1C (stereo unspecified)
Aminopeptidase N
  IC50: 57.8 µM (active)
[5]
  EC50: 25.1 µM (not active)
[2]
  CC50: 42.7 µM (active)
[6]
  EC50: 14.7 µM (not active)
Cells [3]
  IC50: 41.5 µM (active)
[7]
  EC50: 25.9 µM (not active)

## CCOC(=O)c1c(NC(=O)C2C3C=CC(C3)C2C(=O)O)sc2c1CCC(CC)C2 (stereo unspecified)
Genome polyprotein
  IC50: 42.4 µM (active)
Leucine aminopeptidase
  IC50: 7.67 µM (active)
Procathepsin L
  IC50: > 59.6 µM (not active)
Aspartyl aminopeptidase
  IC50: > 73.5 µM (not active)
[4]
  IC50: 1.91 µM (active)

## CCn1cc(C(=O)O)c(=O)c2cc(F)c(N/N=C/c3ccccc3)cc21
[1]
  CC50: 34.1 µM (active)
Cells [8]
  IC50: > 29.9 µM (inactive)
Cells [9]
  EC50: > 29.9 µM (inactive)
[10]
  IC50: 1.68 µM (active)
[11]
  EC50: 19.7 µM (inactive)

## O=C1Nc2ccccc2N2CCCC12 (stereo unspecified)
[12]
  IC50: > 2.48 µM (active)
[13]
  IC50: > 67 µM (not active)
